Test results taken from publication PMC5762309 (Oncotarget, 2017).

What was measured:
Type in all cases: cell-based
Conditions in all cases: Mus musculus, 72 hours, CellTiter-Glo
BaF3-tel-KIT-D816V = assay: Anti-proliferation assay, transformed BaF3 cells
Source text: (§1) Retroviral constructs for BaF3-KIT mutants were made based on the pMSCVpuro (Clontech) backbone. For TEL-KIT vector, the first 1 kb of human TEL gene with an artificial myristoylation sequence ([…]) was cloned into the pMSCVpuro retroviral vector, followed by a 3xFLAG tag sequence. Then, the kinase domain coding sequence of KIT was inserted in-frame between TEL and 3xFLAG sequences. For full-length expression vectors, the coding sequences of KIT variants were directly cloned in pMSCVpuro vector with a 3xFLAG tag at the C-terminal end. All mutagenesis was performed using the QuikChange Site-Directed Mutagenesis Kit (Stratagene) following the manufacturer’s instructions. Retrovirus was packaged in HEK293T cells by transfecting KIT-containing MSCV vectors together with two helper plasmids. Virus supernatants were harvested 48 h after transfection and filtered before infection. Then BaF3 cells were infected with harvested virus supernatants using spinoculation protocol, and stable cell lines were obtained by puromycin selection for 48 h. The IL-3 concentrations in the culture medium were gradually withdrawn until cells were able to grow in the absence of IL-3.
(§2) Cells were grown in 96-well culture plates (2500/well). The compounds of various concentrations were added into the plates. Cell proliferation was determined after treatment with compounds for 72 hours. Cell viability was measured using the CellTiter–Glo assay (Promega, USA), according to the manufacturer’s instructions, and luminescence was measured in a multi-label reader (Envision, PerkinElmer, USA). Data were normalized to control groups (DMSO) and represented by the mean of three independent measurements with standard error <20%. GI50 values were calculated using Prism 5.0 (GraphPad Software, San Diego, CA).

BaF3-tel-KIT = assay: Anti-proliferation assay, transformed BaF3 cells
Source text: as §1, §2

BaF3-tel-KIT-A829P = assay: Anti-proliferation assay, transformed BaF3 cells
Source text: as §1, §2

BaF3-tel-KIT-V559D-V654A = assay: Anti-proliferation assay, transformed BaF3 cells
Source text: as §1, §2

BaF3-tel-KIT-N822K = assay: Anti-proliferation assay, transformed BaF3 cells
Source text: as §1, §2

BaF3-tel-KIT-T670I-V559D = assay: Anti-proliferation assay, transformed BaF3 cells
Source text: as §1, §2

BaF3-tel-KIT-V654A = assay: Anti-proliferation assay, transformed BaF3 cells
Source text: as §1, §2

BaF3-tel-KIT-V559D = assay: Anti-proliferation assay, transformed BaF3 cells
Source text: as §1, §2

BaF3-tel-KIT-T670I = assay: Anti-proliferation assay, transformed BaF3 cells
Source text: as §1, §2

BaF3-tel-KIT-L576P = assay: Anti-proliferation assay, transformed BaF3 cells
Source text: as §1, §2

BaF3 = assay: Anti-proliferation assay, parental BaF3 cells

GI50 (BaF3-tel-KIT-D816V): 420 nM
GI50 (BaF3-tel-KIT): 60 nM
GI50 (BaF3-tel-KIT-A829P): 130 nM
GI50 (BaF3-tel-KIT-V559D-V654A): 6 nM
GI50 (BaF3-tel-KIT-N822K): 120 nM
GI50 (BaF3-tel-KIT-T670I-V559D): 7 nM
GI50 (BaF3-tel-KIT-V654A): 2 nM
GI50 (BaF3-tel-KIT-V559D): < 0.3 nM
GI50 (BaF3-tel-KIT-T670I): 1 nM
GI50 (BaF3-tel-KIT-L576P): 3 nM
Structure (SMILES): CCN(CC)CCNC(=O)c1c(C)[nH]c(/C=C2\C(=O)Nc3ccc(F)cc32)c1C [Sunitinib, reference compound]
GI50 (BaF3): 1300 nM
